Reference: patent US20210253598A1, “ARYL ANNULATED MACROCYCLIC INDOLE DERIVATIVES” (priority 2017, published 2021)
Structures can show the parent of a compound that is named as a salt. Where two headings read alike, the source gives them in different places.

Legend:
[1] = target: MCL-1 (Homo sapiens, UniProt Q07820, K194A/K197A/R201A); assay: Protein-protein interaction assay MCL-1/Noxa BH3 peptide, TR-FRET (MCL-1 assay, Assay 1); assay type: binding; details: MBP-MCL-1 / Noxa BH3 peptide
How it was run: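 TR-FRET competition between compounds and a biotin-PEG Noxa BH3 tracer for 1 nM MBP-MCL-1 (residues 173-321). Incubation was 1 h at 22 °C in the dark, then overnight at 4 °C, in 50 mM Tris pH 7 buffer with KF and DTT, after a 10-min compound pre-equilibration. Normalized ratios were fitted with a 4-parameter Hill equation to give IC50.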

[2] = system: SUDHL10; assay: Anti-proliferative effect in SUDHL10 cells, CellTiter-Glo (Assay 7); assay type: cell-based; details: median, read-out: Antiproli SUDHL10 [M] (median)
Protocol: (§1) Assessment of the Anti-Proliferative Effect of Compounds in Different Cell Lines
(§2) The impact of compounds on the proliferation of different cell lines was assessed using the CellTiter-Glo® Luminescent Cell Viability reagent from Promega (G7573).
(§3) In parallel, cells were plated in a reference (day 0) plate for time zero determination. Cells were incubated in a humidified incubator at 37° C. overnight.
(§4) Rim wells were excluded. The cells were incubated for 72 hours in a humidified incubator at 37° C. The day 0 plate was measured by adding 30 μL/well of CTG solution (CellTiter-Glo® Luminescent Cell Viability reagent, Promega G7573) to time zero wells in the reference plate followed by a 10 minutes incubation and luminescence reading at 0.1 ms. using the PHERAstar FS microplate reader (BMG Labtech).
(§5) After 72 hours incubation, the treated plates were measured in the same way as the day 0 plate mentioned above. The Bella DRC Master Sheet was used to calculate IC50s, with CI=day 0 values and C0=DMSO control values.

[3] = system: HMC-1-8; assay: Anti-proliferative effect in HMC-1-8 cells, CellTiter-Glo (Assay 7); assay type: cell-based
Protocol: as §1, §2, §3, §4, §5

[4] = median, read-out: MCL-1 Assay [M] (median)
[5] = read-out: Antiproli HMC-1-8, HMC-1-8, 72 hours incubation

Sequence of MCL-1 (Q07820 173-321 K194A/K197A/R201A, looked up): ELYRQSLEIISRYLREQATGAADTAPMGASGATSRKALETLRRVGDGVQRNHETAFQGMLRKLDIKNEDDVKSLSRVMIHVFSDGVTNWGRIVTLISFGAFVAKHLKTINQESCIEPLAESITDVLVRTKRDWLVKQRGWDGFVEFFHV

Structure (SMILES) | IC50 ([1]; MCL-1 Assay [M] (median)) | further results
Cc1c2c(nn1C)COCc1ccccc1Cn1c(C(=O)O)c(CCCOc3cccc4cc(F)ccc34)c3ccc(Cl)c-2c31 (racemic) [Example 48, (rac)-3-Chloro-17-{3-[(6-fluoronaphthalen-1-yl)oxy]propyl}-4,5-dimethyl-5,7,9,14-tetrahydroindolo[7,1-fg]pyrazolo[3,4-d][2,8]benzoxazacycloundecine-16-carboxylic Acid] | 5.9e-10 | –
Cc1c2c(nn1C)COCc1ncccc1Cn1c(C(=O)O)c(CCCOc3cccc4ccccc34)c3cccc-2c31 (single isomer, unassigned; enantiomer 1) [Example 8, 4,5-Dimethyl-17-[3-(naphthalen-1-yloxy)propyl]-5,7,9,14-tetrahydropyrazolo[4′,3′:9,10]-pyrido[2′,3′:3,4][1,6]oxazacycloundecino[8,7,6-hi]indole-16-carboxylic acid-N-ethylethanamine Salt (Enantiomer 1)] | 1.5e-09 | –
Cc1c2c(nn1C)COCc1ccccc1Cn1c(C(=O)O)c(CCCOc3cccc4ccccc34)c3ccc(Cl)c-2c31 (single isomer, unassigned; enantiomer 1) [Example 37, (−)-3-Chloro-4,5-dimethyl-17-[3-(naphthalen-1-yloxy)propyl]-5,7,9,14-tetrahydroindolo[7,1-fg]pyrazolo[3,4-d][2,8]benzoxazacycloundecine-16-carboxylic Acid (Enantiomer 1)] | 1.3e-09 | –
CCNCC.Cc1c2c(nn1C)COCc1ncccc1Cn1c(C(=O)O)c(CCCOc3cccc4ccccc34)c3ccc(Cl)c-2c31 (single isomer, unassigned; enantiomer 1) [Example 43, 3-Chloro-4,5-dimethyl-17-[3-(naphthalen-1-yloxy)propyl]-5,7,9,14-tetrahydropyrazolo-[4′,3′:9,10]pyrido[2′,3′:3,4][1,6]oxazacycloundecino[8,7,6-hi]indole-16-carboxylic acid-N-ethylethanamine Salt (Enantiomer 1)] | – | IC50 [1, 4]: 5.1e-10 M; IC50 ([2]; SUDHL10, 72 hours incubation): 1.5e-06 M
Cc1c2c(nn1C)COCc1ccccc1Cn1c(C(=O)O)c(CCCOc3cccc4cc(F)ccc34)c3ccc(Cl)c-2c31 (single isomer, unassigned; enantiomer 1) [Example 49, (−)-3-Chloro-17-{3-[(6-fluoronaphthalen-1-yl)oxy]propyl}-4,5-dimethyl-5,7,9,14-tetrahydroindolo[7,1-fg]pyrazolo[3,4-d][2,8]benzoxazacycloundecine-16-carboxylic acid-N-ethylethanamine Salt (Enantiomer 1)] | 4.7e-10 | IC50 ([2]; Homo sapiens, SU-DHL10, SUDHL10, 72 hours incubation): 1.2e-06 M
CCc1nn(CCN2CCOCC2)c2c1-c1c(Cl)ccc3c(CCCOc4cccc5cc(F)ccc45)c(C(=O)O)n(c13)Cc1ccccc1COC2 (single isomer, unassigned; enantiomer 1) [Example 52, (−)-3-Chloro-4-ethyl-17-{3-[(6-fluoronaphthalen-1-yl)oxy]propyl}-6-[2-(morpholin-4-yl)ethyl]-6,7,9,14-tetrahydroindolo[7,1-fg]pyrazolo[3,4-d][2,8]benzoxazacycloundecine-16-carboxylic Acid (Enantiomer 1)] | 9.6e-10 | –
CCc1c2c(nn1C)COCc1ccccc1Cn1c(C(=O)O)c(CCCOc3cccc4cc(F)ccc34)c3ccc(Cl)c-2c31 (single isomer, unassigned; enantiomer 1) [Example 55, (−)-3-Chloro-4-ethyl-17-{3-[(6-fluoronaphthalen-1-yl)oxy]propyl}-5-methyl-5,7,9,14-tetrahydro-indolo[7,1-fg]pyrazolo[3,4-d][2,8]benzoxazacycloundecine-16-carboxylic Acid N-ethylethanamine Salt (Enantiomer 1)] | – | IC50 [3, 5]: 2390 nM
CCc1nn(C)c2c1-c1c(Cl)ccc3c(CCCOc4cccc5cc(F)ccc45)c(C(=O)O)n(c13)Cc1ccccc1COC2 (single isomer, unassigned; enantiomer 1) [Example 58, (+)-3-Chloro-4-ethyl-17-{3-[(6-fluoronaphthalen-1-yl)oxy]propyl}-6-methyl-6,7,9,14-tetrahydro-indolo[7,1-fg]pyrazolo[3,4-d][2,8]benzoxazacycloundecine-16-carboxylic acid-N-ethylethanamine Salt (Enantiomer 1)] | – | IC50 ([3]; HMC-1-8, 72 hours incubation, read-out: Antiproli HMC-1-8): 3870 nM; IC50 [1, 4]: 2.6e-09 M
Cc1c2c(nn1C)COCc1ccccc1Cn1c(C(=O)O)c(CCCOc3cccc4cc(F)ccc34)c3ccc(F)c-2c31 (single isomer, unassigned; enantiomer 1) [Example 65, (−)-3-fluoro-17-{3-[(6-fluoronaphthalen-1-yl)oxy]propyl}-4,5-dimethyl-5,7,9,14-tetrahydroindolo[7,1-fg]pyrazolo[3,4-d][2,8]benzoxazacycloundecine-16-carboxylic acid-N-ethylethanamine Salt (Enantiomer 1)] | 1.3e-09 | –
Cc1c2c(nn1C)COCc1ccccc1Cn1c(C(=O)O)c(CCCOc3cccc4ccccc34)c3ccc(F)c-2c31 (single isomer, unassigned; enantiomer 1) [Example 68, (−)-3-Fluoro-4,5-dimethyl-17-{3-[(naphthalen-1-yl)oxy]propyl}-5,7,9,14-tetrahydroindolo[7,1-fg]pyrazolo[3,4-d][2,8]benzoxazacycloundecine-16-carboxylic acid-N-ethylethanamine Salt (Enantiomer 1)] | 3.2e-09 | –
Cc1c2c(nn1C)COCc1ccccc1Cn1c(C(=O)O)c(CCCOc3cccc4cc(F)ccc34)c3ccc(Cl)c-2c31 (single isomer, unassigned; enantiomer 2) [Example 50, (+)-3-Chloro-17-{3-[(6-fluoronaphthalen-1-yl)oxy]propyl}-4,5-dimethyl-5,7,9,14-tetrahydroindolo[7,1-fg]pyrazolo[3,4-d][2,8]benzoxazacycloundecine-16-carboxylic acid-N-ethylethanamine Salt (Enantiomer 2)] | 1.4e-09 | IC50 ([2]; SUDHL10, 72 hours incubation): 1.2e-06 M
CCc1c2c(nn1C)COCc1ccccc1Cn1c(C(=O)O)c(CCCOc3cccc4cc(F)ccc34)c3ccc(Cl)c-2c31 (single isomer, unassigned; enantiomer 2) [Example 56, (+)-3-Chloro-4-ethyl-17-{3-[(6-fluoronaphthalen-1-yl)oxy]propyl}-5-methyl-5,7,9,14-tetrahydro-indolo[7,1-fg]pyrazolo[3,4-d][2,8]benzoxazacycloundecine-16-carboxylic Acid N-ethylethanamine Salt (Enantiomer 2)] | 3.2e-09 | IC50 [3, 5]: 10900 nM
